Assay results published in ChEMBL document CHEMBL5506010, “Butyrylcholinesterase-Activated Near-Infrared Fluorogenic Probe for In Vivo Theranostics of Alzheimer's Disease” (J Med Chem, 2024).
Calls of active or inactive are those of the source. The calls are words filed in the database; no cut-off is given here.

Columns and labels:
[1] = Toxicity in APP/PS1 transgenic AD mouse model assessed as lung damage administered intravenously once every 2 days for 10 times and measured on day 30 by H and E staining based analysis; assay type: tissue-based; conditions: in vivo, iv, 720 h, time 30 day
Cholinesterase [2] = target: T1, Cholinesterase (Homo sapiens, UniProt P06276); assay: Binding affinity to BChE in human LN-229 cells at 10 uM incubated for 1 hrs by fluorescence based confocal laser scanning microscopic analysis; assay type: cell-based
T1 sequence (P06276 whole entry): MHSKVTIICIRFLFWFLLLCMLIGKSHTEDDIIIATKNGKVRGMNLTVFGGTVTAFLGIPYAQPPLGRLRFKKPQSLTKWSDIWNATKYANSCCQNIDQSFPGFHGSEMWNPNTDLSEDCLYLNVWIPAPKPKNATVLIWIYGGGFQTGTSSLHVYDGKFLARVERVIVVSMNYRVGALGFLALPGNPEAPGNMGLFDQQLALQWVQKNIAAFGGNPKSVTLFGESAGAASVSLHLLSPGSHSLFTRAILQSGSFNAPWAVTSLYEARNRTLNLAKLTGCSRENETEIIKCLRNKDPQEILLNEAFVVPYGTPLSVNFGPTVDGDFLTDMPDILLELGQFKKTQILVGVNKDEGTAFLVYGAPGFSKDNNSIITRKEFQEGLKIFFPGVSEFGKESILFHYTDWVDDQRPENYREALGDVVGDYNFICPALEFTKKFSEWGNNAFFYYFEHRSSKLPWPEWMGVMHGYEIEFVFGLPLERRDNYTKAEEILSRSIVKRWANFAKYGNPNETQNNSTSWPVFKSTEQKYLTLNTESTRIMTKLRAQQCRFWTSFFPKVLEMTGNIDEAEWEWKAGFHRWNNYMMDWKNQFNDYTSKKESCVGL

PC-12 [3] = assay: Binding affinity to BChE in rat PC-12 cells assessed as increase in fluorescence intensity at 10 uM incubated for 24 hrs by fluorescence based confocal laser scanning microscopic analysis; assay type: cell-based
Mus musculus [4] = assay: Antialzheimer activity in APP/PS1 transgenic AD mouse model assessed as improvement in recognition index for novel objects administered intravenously once every 2 days for 10 times and measured on day 28 by Novel object recognition test; assay type: functional, organism-based; conditions: route iv, time 28.0 day
[5] = Drug uptake in HEK293T cells transfected with BChE siRNA assessed as increase in fluorescence intensity by fluorescence based confocal laser scanning microscopic analysis; assay type: ADME, cell-based; conditions: human, hek-293t
Cholinesterase [6] = target: T1, Cholinesterase; assay: Binding affinity to BChE (unknown origin) assessed as enzyme mediated compound hydrolysis measured after 1 min by HPLC analysis relative to control; design: scale not given: the % may be the effect or the level left
[7] = Drug uptake in brain of 8 months old AD-mouse model assessed as increase in fluorescence at 100 uM, iv by fluorescence scanning analysis; assay type: ADME, organism-based; conditions: in vivo
PC-12 [8] = assay: Binding affinity to BChE in rat PC-12 cells assessed as increase in fluorescence intensity incubated for 1 hrs by fluorescence based confocal laser scanning microscopic analysis; assay type: cell-based; conditions: dose 1-10 µM
Cholinesterase [9] = target: T1, Cholinesterase; assay: Binding affinity to BChE (unknown origin) in PBS assessed as Michaelis-menten constant by fluorometric method
Cholinesterase [10] = target: T1, Cholinesterase; assay: Binding affinity to BChE (unknown origin) in PBS assessed as red-shift in maximum absorption to 680 nm by UV/vis absorption analysis
HT-22 = assay: Inhibition of H2O2-induced ROS release in mouse HT-22 cells assessed as decrease in green fluorescence at 1 to 10 uM preincubated for 1 hrs followed by H2O2 addition and measured after 24 hrs by DCFH-DA based confocal laser scanning microscopic analysis; assay type: functional, cell-based; conditions: dose 1-10 µM, time 25.0 hrs
[11] = Toxicity in APP/PS1 transgenic AD mouse model assessed as spleen damage administered intravenously once every 2 days for 10 times and measured on day 30 by H and E staining based analysis; assay type: tissue-based; conditions: in vivo, iv, 720 h, time 30 day
PC-12 [12] = assay: Binding affinity to BChE in rat PC-12 cells at 10 uM incubated for 1 hrs by fluorescence based confocal laser scanning microscopic analysis; assay type: cell-based
SH-SY5Y [13] = assay: Neuroprotective activity against amyloid-beta (1 to 42)-induced human SH-SY5Y cells assessed as increase in ACh level in culture medium at 10 to 20 uM incubated for 24 hrs by ELISA; assay type: functional, cell-based; conditions: dose 10-20 µM
Cholinesterase [14] = target: T1, Cholinesterase; assay: Binding affinity to BChE (unknown origin) in PBS assessed as cyan coloured appearance of compound by UV/vis absorption analysis
[15] = Toxicity in APP/PS1 transgenic AD mouse model assessed as effect on body weight administered intravenously once every 2 days for 10 times and measured on day 30; conditions: in vivo, iv, 720 h, time 30 day
Mus musculus [16] = assay: Antialzheimer activity in APP/PS1 transgenic AD mouse model assessed as increase in ACh level administered intravenously once every 2 days for 10 times and measured on day 30 by ELISA; assay type: functional, organism-based; conditions: route iv, time 30.0 day
[17] = Drug uptake in brain of 6 weeks old AD-mouse model assessed as increase in fluorescence at 100 uM, iv preadministered with tacrine for 4 hrs followed by compound administration by fluorescence scanning analysis; assay type: ADME, organism-based; conditions: in vivo
SH-SY5Y [18] = assay: Neuroprotective activity against amyloid-beta (1 to 42)-induced cell death in human SH-SY5Y cells assessed as increase in cell survival preincubated with compound for 2 hrs followed by amyloid beta (1 to 42) addition and measured after 24 hrs by MTT assay; assay type: functional, cell-based; conditions: dose 10-50 µM, time 26.0 hrs
[19] = Stability of compound in male ICR mouse brain at 100 uM, iv measured at 5 to 60 mins by fluorescence microplate reader; assay type: ADME, organism-based; conditions: time 5-60 min
Cholinesterase [20] = target: T1, Cholinesterase; assay: Binding affinity to BChE (unknown origin) in PBS assessed as […] at 680 nm by UV/vis absorption analysis
Cholinesterase [21] = target: T1, Cholinesterase; assay: Binding affinity to BChE (unknown origin) in PBS assessed as maximum emission wavelength at 710 nm by fluorescence spectra analysis
[22] = Neurotoxicity in mouse HT-22 cells assessed as reduction in cell viability at 50 uM; assay type: toxicity, cell-based; conditions: ht-22, 50 µM
[23] = Selectivity ratio of fluorescence intensity for binding affinity to AChE (unknown origin) in PBS to fluorescence intensity for binding affinity to BChE (unknown origin) in PBS
Cholinesterase [24] = target: T1, Cholinesterase; assay: Binding affinity to BChE (unknown origin) in PBS assessed as fold change in fluorescence intensity at 710 nm by fluorescence spectra analysis
Cholinesterase [25] = target: T1, Cholinesterase; assay: Binding affinity to BChE (unknown origin) assessed as enzyme mediated compound hydrolysis measured after 5 min by HPLC analysis relative to control; design: scale not given: the % may be the effect or the level left
Cholinesterase [26] = target: T1, Cholinesterase; assay: Inhibition of human BChE using butyrylthiocholineiodide as substrate preincubated for 5 mins followed by substrate addition and measured immediately by Ellmans method
[27] = Drug uptake in brain of 8 months old AD-mouse model assessed as increase in fluorescence at 100 uM, iv preadministered with tacrine for 4 hrs followed by compound administration by fluorescence scanning analysis; assay type: ADME, organism-based; conditions: in vivo
Homo sapiens [28] = organism: Homo sapiens; assay: Binding affinity to lysozyme (unknown origin) by fluorescence analysis
[29] = Drug accumulation in brain of APP/PS1 transgenic AD-mouse model at 100 uM, iv measured after 24 hrs […] by fluorescence imaging analysis; assay type: ADME, organism-based; conditions: in vivo
[30] = Toxicity in APP/PS1 transgenic AD mouse model assessed as kidney damage administered intravenously once every 2 days for 10 times and measured on day 30 by H and E staining based analysis; assay type: tissue-based; conditions: in vivo, iv, 720 h, time 30 day
[31] = Toxicity in APP/PS1 transgenic AD mouse model assessed as heart damage administered intravenously once every 2 days for 10 times and measured on day 30 by H and E staining based analysis; assay type: tissue-based; conditions: in vivo, iv, 720 h, time 30 day
[32] = Stability of compound in PBS at pH 7.4 measured after 72 hrs by HPLC analysis; assay type: physicochemical; conditions: buffer, pH 7.4, 72 h
Mus musculus [33] = assay: Antialzheimer activity in APP/PS1 transgenic AD mouse model assessed as improvement in learning administered intravenously once every 2 days for 10 times followed by morris water maze training from day 21 to 25 and measured on day 26 by Morris water maze test; assay type: functional, organism-based; conditions: route iv, time 26.0 day
Homo sapiens [34] = organism: Homo sapiens; assay: Binding affinity to ALP (unknown origin) by fluorescence analysis
[35] = Drug accumulation in brain of APP/PS1 transgenic AD-mouse model at 100 uM, iv measured at 5 to 60 mins by fluorescence imaging analysis; assay type: ADME, organism-based; conditions: in vivo, time 5-60 min
Mus musculus [36] = assay: Antialzheimer activity in APP/PS1 transgenic AD mouse model assessed as increase in alteration performance administered intravenously once every 2 days for 10 times and measured on day 26 by Y maze test; assay type: functional, organism-based; conditions: route iv, time 26.0 day

For `CCN(CC)Cc1ccccc1CNC(=O)c1cccc(NC(=O)c2cccc(C(=O)NCCn3cc(CCC[N+]4=C(/C=C/C5=C6Oc7cc(OC(=O)C8CC8)ccc7C=C6CCC5)C(C)(C)c5ccccc54)nn3)c2)c1.[I-]`, the Activity [1] was “Non-Toxic”, the Activity (Cholinesterase [2]) was “Active” and the Activity (PC-12 [3]) was “Active”. For the same compound, the Activity (Mus musculus [4]) was “Active”, the Drug uptake [5] was “Not Active” and the Activity (Cholinesterase [6]) was 50%. The Drug uptake [7] was “Active”, the Activity (PC-12 [8]) was “Dose-Dependent Effect” and the Activity (Cholinesterase [9]) was 12.9 µM. The Activity (Cholinesterase [10]) was “Active”, the inhibition (HT-22) was “Active” and the Activity [11] was “Non-Toxic”. For the same compound, the Activity (PC-12 [12]) was “Active”, the Activity (SH-SY5Y [13]) was “Active” and the Activity (Cholinesterase [14]) was “Active”. The Activity [15] was “Non-Toxic”, the Activity (Mus musculus [16]) was “Active” and the Drug uptake [17] was “Not Active”. The Activity (SH-SY5Y [18]) was “Dose-Dependent Effect”, the Stability [19] was “Stable” and the Activity (Cholinesterase [20]) was “Active”. The Activity (Cholinesterase [21]) was “Active”, the Activity [22] was “Non-Toxic” and the Selectivity ratio [23] was 22.8. For the same compound, the fold change (FC) (Cholinesterase [24]) was 24, the Activity (Cholinesterase [25]) was greater than 90% and the IC50 (Cholinesterase [26]) was 29.7 nM. For the same compound, the Drug uptake [27] was “Not Active”, the Activity (Homo sapiens [28]) was “inactive” and the Drug uptake [29] was “Not Active”. The Activity [30] was “Non-Toxic”, the Activity [31] was “Non-Toxic” and the Stability [32] was “Stable”. For the same compound, the Activity (Mus musculus [33]) was “Active”, the Activity (Homo sapiens [34]) was “inactive” and the Drug uptake [35] was “Active”. For the same compound, the Activity (Mus musculus [36]) was “Active”.
